# Experiments:
# [1] = test system: Salmonella typhimurium TA1535; assay: Ames test (reverse mutation test), pre-incubation method, strain TA1535; format: cell-based; conditions: TA1535
# Experimental: (§1) Ames Test (Reverse Mutation Test)
# (§2) Metabolites 1 to 3 and Metabolites A to E were each tested herein. The purpose of this test is to evaluate the potential of each metabolite to induce reverse mutations in the standard strains of Salmonella typhimurium (TA98, TA1537, TA100, and TA1535) and Escherichia coli (WP2uvrA), in either the presence or absence of a rat liver metabolic activation system (S9 mix).
# (§3) The solvent used herein was dimethyl sulfoxide (DMSO, 100 μL/plate).
# (§4) The test was performed by the pre-incubation method with or without S9 mix. When the test was performed without S9 mix, sodium phosphate buffer solution (pH 7.4) was added.
# (§5) 0.5 mL of S9 mix or 0.5 mL of 0.1 mol/L sodium phosphate buffer solution (pH 7.4), and 0.1 mL of the bacterial culture solution were added to a test tube containing 0.1 mL of the negative control formulation (DMSO alone), the metabolite, or the positive control formulation. The mixtures were pre-incubated at 37° C. for 20 minutes while shaking. After the pre-incubation period, 2 mL of top agar were added and the mixtures were vortex-mixed and seeded onto plates. Two plates per treatment were used. Each plate was incubated at 37±1° C. for 48 hours or more and the revertant colonies were counted. The mean number of revertant colonies for each treatment plate was then calculated. The presence or absence of growth inhibition due to any antibacterial effect of the test article and precipitation of the test article was observed grossly or under a stereomicroscope. […] Evaluation was based on mean values with no statistical comparisons being used.
# [2] = test system: Salmonella typhimurium TA98; assay: Ames test (reverse mutation test), pre-incubation method, strain TA98; conditions: TA98; in the presence of S9 mix
# Experimental: as §1, §2, §3, §4, §5
# [3] = test system: Salmonella typhimurium TA1537; assay: Ames test (reverse mutation test), pre-incubation method, strain TA1537; format: cell-based; conditions: TA1537
# Experimental: as §1, §2, §3, §4, §5
# [4] = test system: Salmonella typhimurium TA100; assay: Ames test (reverse mutation test), pre-incubation method, strain TA100; format: cell-based; conditions: TA100; in the presence of S9 mix
# Experimental: as §1, §2, §3, §4, §5
# Escherichia coli WP2uvrA = assay: Ames test (reverse mutation test), pre-incubation method, strain WP2uvrA; format: cell-based; conditions: WP2uvrA; in the absence of S9 mix
# Excerpt: as §1
# Two plates per treatment were used.
Structure (SMILES),potential to induce reverse mutations ([1]; in the presence of S9 mix),potential to induce reverse mutations [2],potential to induce reverse mutations ([3]; in the absence of S9 mix),potential to induce reverse mutations ([3]; in the presence of S9 mix),potential to induce reverse mutations [4],potential to induce reverse mutations (Escherichia coli WP2uvrA),potential to induce reverse mutations ([1]; in the absence of S9 mix)
"Nc1cc(-c2cccc(OCC(F)(F)F)c2)n(-c2ccc(F)cc2)n1 [Metabolite B, reference compound]",had potential to induce reverse mutations,had potential to induce reverse mutations,had potential to induce reverse mutations,had potential to induce reverse mutations,had potential to induce reverse mutations,–,–
"Cc1ccc(-n2nc(N)cc2-c2cccc(OCC(F)(F)F)c2)cc1 [Metabolite C, reference compound]",–,had potential to induce reverse mutations,–,had potential to induce reverse mutations,had potential to induce reverse mutations,had potential to induce reverse mutations,–
"Nc1cc(-c2cccc(OC(F)(F)F)c2)n(-c2cccc(F)c2)n1 [Metabolite D, reference compound]",–,–,–,–,had potential to induce reverse mutations,–,had potential to induce reverse mutations
"Cc1cccc(-n2nc(N)cc2-c2cccc(OC(F)(F)F)c2)c1 [Metabolite E, reference compound]",–,had potential to induce reverse mutations,–,had potential to induce reverse mutations,had potential to induce reverse mutations,–,–
